In brackets after ≈: the same amount, converted by molar mass. Like-named read-outs stand apart in the source and are kept apart here. Residues, ends and D or L forms follow the SMILES beside them.
Key:
[1] = test system: MDR/XDR K. pneumoniae clinical isolates; test: microbe, parasite or virus in culture; settings: for MIC: broth microdilution in CAMHB, 20-24 h at 37°C; for MBC: wells with no visible growth plated on MHA, 37°C, kills at least 99.9% of inoculum
Description: The ability of K11 to inhibit bacterial growth was determined by the broth microdilution method ([Clinical and Laboratory Standards Institute, 2018]). Briefly, a series of 2-fold dilutions of K11 were prepared from 1,024 to 2 µg/mL in cation-adjusted Mueller-Hinton broth (CAMHB), Then 50 µL of each peptide dilution was added to each well of polystyrene 96-well U-bottom microplates. The log-phase cultures were adjusted to 0.5 McFarland standard and diluted 1:100 in CAMHB to provide the density of 10^6 CFU/mL. Consequently, 50 µL of diluted bacterial suspension was added to wells containing 50 µL of peptide solution, followed by incubation for 20-24 h at 37°C. […] To evaluate MBC, a volume of 10 μL was taken from each well with no visible growth, inoculated on Mueller-Hinton agar (MHA) plates, and incubated at 37°C. The MBC was defined as the lowest concentration of antimicrobials that killed at least 99.9% of the initial inoculums ([Clinical and Laboratory Standards Institute, 1999]).

[2] = murine excision model; ref Rishi et al., 2018; cited from earlier work
Excerpt: The pH and thermal stability of AMPs are essential for their preparation, processing, and storage ([Zong et al., 2016]). At the same time, the stability of AMPs in serum and under physiological salt conditions is also crucial when administrating AMPs in vivo ([Rodríguez et al., 2021]).

[3] = test system: K. pneumoniae reference strains; test: MIC determination, broth microdilution; format: cell-based, Klebsiella pneumoniae; settings: K. pneumoniae reference strains (ATCC BAA-1706, ATCC 70063)
K. pneumoniae ATCC 70063 [4] = test system: K. pneumoniae ATCC 70063
K. pneumoniae ATCC 70063 [5] = test system: K. pneumoniae ATCC 70063; remark: listed apart in the source
Description: (§1) The temperature and pH stabilities of K11 were evaluated by the MIC assay, as mentioned above. To assess the thermal stability, Aliquots of 2 mg/mL of K11 in sterile deionized water were incubated for 1 h at 25°C, 37°C, 50°C, 70°C, and 90°C. Then, a series of 2-fold dilutions of K11 were prepared in CAMHB, 50 µL of each peptide solution was transferred to the well of a 96-well microplate. An equal volume of K. pneumoniae ATCC 70063 or K. pneumoniae ATCC BAA-1706 (10^6 CFU/mL) suspension was added, and the mixture was incubated at 37°C for 20-24 h ([Li et al., 2021]). To examine the pH stability, the pH was adjusted to range from 2.0 to 10.0 with the following 100 mM buffers: glycine-HCl buffer (pH 2.0), sodium acetate buffer (pH 4.0), sodium phosphate buffer (pH 6.0), Tris-HCl buffer (pH 8.0), and glycine-NaOH buffer (pH 10.0). Then, 2 mg/mL of K11 was prepared in buffers with different pH values (pH 2.0-10.0) and incubated for 1 h at 37°C. Afterward, the pH of the reaction solution was neutralized by HCl or NaOH to terminate the reaction. The serially diluted peptide solutions were conducted, then treated against the tested strains, and the mixtures were incubated at 37°C for 20-24 h ([Cao et al., 2015]; [Zong et al., 2016]). The MICs were observed.

[6] = test system: K. pneumoniae ATCC BAA-1706
Description: as §1

[7] = MDR/XDR K. pneumoniae clinical isolates
[8] = K11 2 mg/mL in 100 mM Tris-HCl buffer pH 8.0, 1 h at 37°C, neutralized, then MIC
[9] = K11 2 mg/mL in 100 mM glycine-HCl buffer pH 2.0, 1 h at 37°C, neutralized, then MIC
[10] = K11 2 mg/mL in 100 mM glycine-NaOH buffer pH 10.0, 1 h at 37°C, neutralized, then MIC
[11] = K11 2 mg/mL in 100 mM sodium acetate buffer pH 4.0, 1 h at 37°C, neutralized, then MIC
[12] = K11 2 mg/mL in 100 mM sodium phosphate buffer pH 6.0, 1 h at 37°C, neutralized, then MIC
[13] = K11 2 mg/mL in sterile deionized water incubated 1 h at 25°C (control), then MIC in CAMHB
[14] = K11 2 mg/mL in sterile deionized water incubated 1 h at 37°C, then MIC in CAMHB
[15] = K11 2 mg/mL in sterile deionized water incubated 1 h at 50°C, then MIC in CAMHB
[16] = K11 2 mg/mL in sterile deionized water incubated 1 h at 70°C, then MIC in CAMHB
[17] = K11 2 mg/mL in sterile deionized water incubated 1 h at 90°C, then MIC in CAMHB

With `CC[C@H](C)[C@H](NC(=O)[C@H](Cc1ccccc1)NC(=O)[C@H](CO)NC(=O)[C@H](CCCCN)NC(=O)[C@H](Cc1c[nH]c2ccccc12)NC(=O)[C@@H](N)CCCCN)C(=O)N[C@@H](CCCCN)C(=O)N[C@@H](CCCCN)C(=O)N[C@@H](CC(C)C)C(=O)N[C@H](C(=O)N[C@@H](CCCCN)C(=O)N[C@@H](CCCCN)C(=O)N[C@@H](Cc1ccccc1)C(=O)N[C@@H](CC(C)C)C(=O)N[C@@H](Cc1c[nH]cn1)C(=O)N[C@@H](CO)C(=O)N[C@@H](C)C(=O)N[C@@H](CCCCN)C(=O)N[C@@H](CCCCN)C(=O)N[C@@H](Cc1ccccc1)C(N)=O)[C@@H](C)O` [K11] (H-KWKSFIKKLTKKFLHSAKKF-NH2) as the molecule, how does the MIC ([1]; KP-01) read?
The MIC was 8 µg/mL (≈ 3.21 µM).

What about the MBC ([1]; KP-01) of the same molecule?
The MBC was 8 µg/mL (≈ 3.21 µM).

And the MIC ([1]; KP-02)?
The MIC was 64 µg/mL (≈ 25.7 µM).

And the MBC ([1]; KP-02)?
The MBC was 64 µg/mL (≈ 25.7 µM).

What about the MIC ([1]; KP-03) of the same molecule?
Its MIC is 16 µg/mL (≈ 6.42 µM).

And the MBC ([1]; KP-03)?
Its MBC is 16 µg/mL (≈ 6.42 µM).

And the MIC ([1]; KP-04)?
The MIC was 64 µg/mL (≈ 25.7 µM).

What about the MBC ([1]; KP-04) of the same molecule?
Its MBC is 128 µg/mL (≈ 51.3 µM).

What about the MIC ([1]; KP-05) of the same molecule?
Its MIC is 8 µg/mL (≈ 3.21 µM).

And the MBC ([1]; KP-05)?
The MBC was 8 µg/mL (≈ 3.21 µM).

And the MIC ([1]; KP-06)?
The MIC was 64 µg/mL (≈ 25.7 µM).

And the MBC ([1]; KP-06)?
The MBC was 128 µg/mL (≈ 51.3 µM).

And the MIC ([1]; KP-07)?
The MIC was 16 µg/mL (≈ 6.42 µM).

And the MBC ([1]; KP-07)?
Its MBC is 16 µg/mL (≈ 6.42 µM).

And the MIC ([1]; KP-08)?
The MIC was 64 µg/mL (≈ 25.7 µM).

What about the MBC ([1]; KP-08) of the same molecule?
Its MBC is 128 µg/mL (≈ 51.3 µM).

What about the MIC ([1]; KP-09) of the same molecule?
Its MIC is 64 µg/mL (≈ 25.7 µM).

What about the MBC ([1]; KP-09) of the same molecule?
Its MBC is 128 µg/mL (≈ 51.3 µM).

And the MIC ([1]; KP-10)?
Its MIC is 64 µg/mL (≈ 25.7 µM).

And the MBC ([1]; KP-10)?
The MBC was 128 µg/mL (≈ 51.3 µM).

And the MIC ([1]; KP-11)?
The MIC was 64 µg/mL (≈ 25.7 µM).

What about the MBC ([1]; KP-11) of the same molecule?
Its MBC is 64 µg/mL (≈ 25.7 µM).

What about the MIC ([1]; KP-12) of the same molecule?
The MIC was 64 µg/mL (≈ 25.7 µM).

And the MBC ([1]; KP-12)?
The MBC was 64 µg/mL (≈ 25.7 µM).

And the MIC ([1]; KP-13)?
Its MIC is 32 µg/mL (≈ 12.8 µM).

What about the MBC ([1]; KP-13) of the same molecule?
The MBC was 32 µg/mL (≈ 12.8 µM).

And the MIC ([1]; KP-14)?
Its MIC is 256 µg/mL (≈ 103 µM).

What about the MBC ([1]; KP-14) of the same molecule?
Its MBC is 256 µg/mL (≈ 103 µM).

And the MIC ([1]; KP-15)?
Its MIC is 512 µg/mL (≈ 205 µM).

What about the MBC ([1]; KP-15) of the same molecule?
Its MBC is 512 µg/mL (≈ 205 µM).

And the MIC50 [1, 7]?
Its MIC50 is 64 µg/mL (≈ 25.7 µM).

What about the MIC90 [1, 7] of the same molecule?
The MIC90 was 256 µg/mL (≈ 103 µM).

And the cytotoxicity [2]?
Its cytotoxicity is “no cytotoxicity”.

What about the “MIC, range over strains” value [3] of the same molecule?
The value was 2 to 4 µg/mL.

And the MIC (K. pneumoniae ATCC 70063 [4]; broth microdilution in CAMHB, 20-24 h at 37°C)?
Its MIC is 4 µg/mL (≈ 1.6 µM).

What about the MBC (K. pneumoniae ATCC 70063 [4]; wells with no visible growth plated on MHA, 37°C, kills at least 99.9% of inoculum) of the same molecule?
Its MBC is 4 µg/mL (≈ 1.6 µM).

And the “Antimicrobial activity MIC” value (K. pneumoniae ATCC 70063 [5]; [8])?
Its value is 4 µg/mL.

What about the “Antimicrobial activity MIC” value (K. pneumoniae ATCC 70063 [5]; [9]) of the same molecule?
The value was 4 µg/mL.

And the “Antimicrobial activity MIC” value (K. pneumoniae ATCC 70063 [5]; [10])?
Its value is 4 µg/mL.

And the “Antimicrobial activity MIC” value (K. pneumoniae ATCC 70063 [5]; [11])?
Its value is 4 µg/mL.

And the “Antimicrobial activity MIC” value (K. pneumoniae ATCC 70063 [5]; [12])?
Its value is 4 µg/mL.

What about the “Antimicrobial activity MIC” value (K. pneumoniae ATCC 70063 [5]; [13]) of the same molecule?
The value was 4 µg/mL.

What about the “Antimicrobial activity MIC” value (K. pneumoniae ATCC 70063 [5]; [14]) of the same molecule?
The value was 4 µg/mL.

And the “Antimicrobial activity MIC” value (K. pneumoniae ATCC 70063 [5]; [15])?
The value was 4 µg/mL.

And the “Antimicrobial activity MIC” value (K. pneumoniae ATCC 70063 [5]; [16])?
Its value is 4 µg/mL.

What about the “Antimicrobial activity MIC” value (K. pneumoniae ATCC 70063 [5]; [17]) of the same molecule?
Its value is 4 µg/mL.

What about the “Antimicrobial activity MIC” value (K. pneumoniae ATCC 70063 [5]; pH 7 (control)) of the same molecule?
Its value is 4 µg/mL.

And the “Antimicrobial activity MIC” value [6, 8]?
Its value is 2 µg/mL.

What about the “Antimicrobial activity MIC” value [6, 9] of the same molecule?
Its value is 2 µg/mL.

And the “Antimicrobial activity MIC” value [6, 10]?
The value was 2 µg/mL.

What about the “Antimicrobial activity MIC” value [6, 11] of the same molecule?
Its value is 2 µg/mL.

And the “Antimicrobial activity MIC” value [6, 12]?
The value was 2 µg/mL.

What about the “Antimicrobial activity MIC” value [6, 13] of the same molecule?
The value was 2 µg/mL.

And the “Antimicrobial activity MIC” value [6, 14]?
The value was 2 µg/mL.

And the “Antimicrobial activity MIC” value [6, 15]?
Its value is 2 µg/mL.

What about the “Antimicrobial activity MIC” value [6, 16] of the same molecule?
The value was 2 µg/mL.

And the “Antimicrobial activity MIC” value [6, 17]?
Its value is 2 µg/mL.

What about the “Antimicrobial activity MIC” value ([6]; pH 7 (control)) of the same molecule?
Its value is 2 µg/mL.

From article PMC10126264, “Synergistic effect and antibiofilm activity of the antimicrobial peptide K11 with conventional antibiotics against multidrug-resistant and extensively drug-resistant Klebsiella pneumoniae” (Frontiers in Cellular and Infection Microbiology, 2023)
